Laboratory results reported in patent publication US8757784B2, “Ink for ink jet recording and recording method” (Seiko Epson Corporation, priority 2012, dated 2014).

Assay: physchem
Details: not given
From the text: Herein, the “logP value” is an index that represents hydrophobicity of a compound. The logP value represents, in an octanol/water system, in which ratio a solute is distributed in these two layers. In other words, when the logP value of the solute is bigger, the hydrophobicity is higher and the solute is well dissolved in an octanol phase.
For example, the logP value can be determined using a flask shaking method using the solute and two types of solvents being actually placed in a flask and mixed by shaking the flask well, or a HPLC method using a high performance liquid chromatography (HPLC).

Row | Compound | logP | logP value
1 | OCCCCO [1,4-butanediol] | 0.5 | 0.50
2 | CC(C)C(O)C(C)(C)CO (stereo not shown) [2,2,4-trimethyl-1,3-pentanediol] | 2 | –
3 | CC(O)C(C)O (stereo not shown) [2,3-butanediol] | -0.36 | –

Same assay, conditions: octanol/water system

Row | Compound | logP value
4 | OCCCO [1,3-propanediol] | −1.33
5 | OCC(O)CO [glycerin] | −2.70
6 | CCC(CO)(CO)CO [trimethylol propane] | −0.47

Same assay, conditions: octanol/water, logP value, octanol/water system

Row | Compound | logP
7 | CCC(O)CO (stereo not shown) [1,2-butanediol] | -0.32
8 | CCCCC(O)CO (stereo not shown) [1,2-hexanediol] | 0.5
9 | CCCC(O)CO (stereo not shown) [1,2-pentanediol] | 0.01
10 | CCC(O)CCO (stereo not shown) [1,3-pentanediol] | -0.16
11 | CCCC(=O)OCC(O)CO (stereo not shown) [1-butanoyl glycerol] | 0
12 | CC(C)(CO)CO [2,2-dimethyl-1,3-propanediol] | -0.3
13 | CC(C)(O)CCC(C)(C)O [2,5-dimethyl-2,5-hexanediol] | 1.53
14 | CC(O)CCC(C)O (stereo not shown) [2,5-hexanediol] | 0.62
15 | CCCCC(CC)(CO)CO [2-butyl-2-ethyl-1,3-propanediol] | 2.1
16 | CC(C)(O)CO [2-methyl-1,2-propanediol] | 0.026
17 | CC(CO)CO [2-methyl-1,3-propanediol] | -0.6
18 | CC(O)CC(C)(C)O (stereo not shown) [2-methyl-2,4-pentanediol] | 0.88
19 | CC(C)(O)CCO [3-methyl-1,3-butanediol] | -0.33
20 | CC(CCO)CCO [3-methyl-1,5-pentanediol] | -0.2
21 | CC(O)CO (stereo not shown) [propylene glycol] | -0.92
